For this experiment, the target named is Polymerase acidic protein (Influenza A virus (strain A/Puerto Rico/8/1934 H1N1), UniProt P03433). Kind of experiment: Inhibition of cap 1 ALMV primed Influenza transcriptase.

The IC50 is the concentration at which inhibition is half-maximal. Higher therefore signals lower potency.

As to `NC(=O)C(=O)CC(=O)C1CCCCC1`, the IC50 is > 500 µM.
`O=C(O)C(=O)CS(=O)(=O)c1ccccc1`: the IC50 was > 500 µM.
In the case of `O=C(O)C(=O)Cc1cc2ccccc2o1`, the IC50 was > 500 µM.
In the case of `Cn1c(CC(=O)C(=O)O)nc2ccccc21` it was > 500 µM; in that of `O=C(O)C(=O)Cc1nc2ccccc2s1`, > 500 µM.

Values taken from BindingDB's records for doi:10.1128/aac.38.12.2827 (Merck Research Laboratories, 1995).
